According to US10214542B2, “Modified macrocyclic compounds” (BAYER PHARMA AKTIENGESELLSCHAFT, priority 2015, dated 2019):
pIC50: −log10 of the molar value. Like-named read-outs stand apart in the source and are kept apart here.

Tests used:
HeLa cells = test: Proliferation assay, crystal violet (Method 3); assay type: cell-based, human; conditions: 4 days, read-out: Inhibition of HeLa cell proliferation IC50
Procedure: (§1) Cultivated tumour cells (HeLa, human cervical tumour cells, ATCC CCL-2; NCI-H460, human non-small cell lung carcinoma cells, ATCC HTB-177; DU 145, hormone-independent human prostate carcinoma cells, ATCC HTB-81; HeLa-MaTu-ADR, multidrug-resistant human cervical carcinoma cells, EPO-GmbH Berlin; Caco-2, human colorectal carcinoma cells, ATCC HTB-37; B16F10, mouse melanoma cells, ATCC CRL-6475) were plated at a density of 5,000 cells/well (DU145, HeLa-MaTu-ADR), 3,000 cells/well (NCI-H460, HeLa), 1,500 cells/well (Caco-2), or 1,000 cells/well (B16F10) in a 96-well multititer plate in 200 μL of their respective growth medium supplemented 10% fetal calf serum. After 24 hours, the cells of one plate (zero-point plate) were stained with crystal violet (see below), while the medium of the other plates was supplemented with the test substances in various concentrations (0 μM, as well as in the range of 0.0001-10 μM; the final concentration of the solvent dimethyl sulfoxide was adjusted to 0.1%) using a Hewlett-Packard HP D300 Digital Dispenser. The cells were incubated for 4 days in the presence of test substances. Cell proliferation was determined by staining the cells with crystal violet: the cells were fixed by adding 20 μl/measuring point of an 11% glutaric aldehyde solution for 15 minutes at room temperature. After three washing cycles of the fixed cells with water, the plates were dried at room temperature. The cells were stained by adding 100 μl/measuring point of a 0.1% crystal violet solution (pH 3.0). After three washing cycles of the stained cells with water, the plates were dried at room temperature. The dye was dissolved by adding 100 μl/measuring point of a 10% acetic acid solution. The extinction was determined by photometry at a wavelength of 595 nm. The change of cell number, in percent, was calculated by normalization of the measured values to the extinction values of the zero-point plate (=0%) and the extinction of the untreated (0 μm) cells (=100%). The IC50 values (inhibitory concentration at 50% of maximal effect) were determined by means of a 4 parameter fit.

CDK2/CycE = target: T1, CDK2/CycE (Homo sapiens, UniProt P24941); test: CDK2/CycE high ATP kinase assay (TR-FRET, Method 2b); assay type: biochemical; conditions: 2 mM ATP
T1 construct: GST; purchased ProQinase GmbH (Freiburg, Germany); host or cells: insect cells (Sf9)
Procedure: 2b. CDK2/CycE High ATP Kinase Assay:
CDK2/CycE-inhibitory activity of compounds of the present invention at 2 mM adenosine-tri-phosphate (ATP) was quantified employing the CDK2/CycE TR-FRET (TR-FRET=Time Resolved Fluorescence Resonance Energy Transfer) assay as described in the following paragraphs.
Recombinant fusion proteins of GST and human CDK2 and of GST and human CycE, expressed in insect cells (Sf9) and purified by Glutathion-Sepharose affinity chromatography, were purchase from ProQinase GmbH (Freiburg, Germany). As substrate for the kinase reaction biotinylated peptide biotin-Ttds-YISPLKSPYKISEG (C-terminus in amid form) was used which can be purchased e.g. from the company JERINI peptide technologies (Berlin, Germany).
For the assay 50 nl of a 100 fold concentrated solution of the test compound in DMSO was pipetted into a black low volume 384 well microtiter plate (Greiner Bio-One, Frickenhausen, Germany), 2 μl of a solution of CDK2/CycE in aqueous assay buffer [50 mM Tris/HCl pH 8.0, 10 mM MgCl2, 1.0 mM dithiothreitol, 0.1 mM sodium ortho-vanadate, 0.01% (v/v) Nonidet-P40 (Sigma)] were added and the mixture was incubated for 15 min at 22° C. to allow pre-binding of the test compounds to the enzyme before the start of the kinase reaction. Then the kinase reaction was started by the addition of 3 μl of a solution ATP (3.33 mM=>final conc. in the 5 μl assay volume is 2 mM) and substrate (1.25 μM=>final conc. in the 5 μl assay volume is 0.75 μM) in assay buffer and the resulting mixture was incubated for a reaction time of 25 min at 22° C. The concentration of CDK2/CycE was adjusted depending of the activity of the enzyme lot and was chosen appropriate to have the assay in the linear range, typical concentrations were in the range of 15 ng/ml. The reaction was stopped by the addition of 5 μl of a solution of TR-FRET detection reagents (0.2 μM streptavidine-XL665 [Cisbio Bioassays, Codolet, France] and 1 nM anti-RB(pSer807/pSer811)-antibody from BD Pharmingen [#558389] and 1.2 nM LANCE EU-W1024 labeled anti-mouse IgG antibody [Perkin-Elmer, product no. AD0077, as an alternative a Terbium-cryptate-labeled anti-mouse IgG antibody from Cisbio Bioassays can be used]) in an aqueous EDTA-solution (100 mM EDTA, 0.2% (w/v) bovine serum albumin in 100 mM HEPES pH 7.5).
The resulting mixture was incubated 1 h at 22° C. to allow the formation of complex between the phosphorylated biotinylated peptide and the detection reagents. Subsequently the amount of phosphorylated substrate was evaluated by measurement of the resonance energy transfer from the Eu-chelate to the streptavidine-XL. Therefore, the fluorescence emissions at 620 nm and 665 nm after excitation at 350 nm were measured in a TR-FRET reader, e.g. a Rubystar (BMG Labtechnologies, Offenburg, Germany) or a Viewlux (Perkin-Elmer). The ratio of the emissions at 665 nm and at […] was taken as the measure for the amount of phosphorylated substrate. The data were normalised (enzyme reaction without inhibitor=0% inhibition, all other assay components but no enzym=100% inhibition).

DU145 cells = test: Proliferation assay, crystal violet (Method 3); assay type: cell-based; conditions: Homo sapiens, DU-145, 96 h; DU145, 4 days; read-out: Inhibition of DU145 cell proliferation IC50
Procedure: as §1

Caco-2 cells = test: Proliferation assay, crystal violet (Method 3); assay type: cell-based; conditions: Homo sapiens, 96 h; Caco-2, 4 days; read-out: Inhibition of Caco-2 cell proliferation IC50
Procedure: as §1

B16F10 cells = test: Proliferation assay, crystal violet (Method 3); assay type: cell-based; conditions: Mus musculus, B16-F10, 96 h; B16F10, 4 days; read-out: Inhibition of B16F10 cell proliferation IC50
Procedure: as §1

HeLa-MaTu-ADR cells = test: Proliferation assay, crystal violet (Method 3); assay type: cell-based; conditions: Homo sapiens, 96 h, 4 days, read-out: Inhibition of HeLa-MaTu-ADR cell proliferation IC50
Procedure: as §1

NCI-H460 cells = test: Proliferation assay, crystal violet (Method 3); assay type: cell-based; conditions: Homo sapiens, 96 h; NCI-H460, 4 days; read-out: Inhibition of NCI-H460 cell proliferation IC50
Procedure: as §1

pIC50 (HeLa cells)	pIC50 (HeLa cells; Homo sapiens, 96 h)	pIC50 (CDK2/CycE)	pIC50 (DU145 cells)	pIC50 (Caco-2 cells)	pIC50 (B16F10 cells)	pIC50 (HeLa-MaTu-ADR cells)	pIC50 (NCI-H460 cells)	Structure (SMILES)
< 7.00	7.11	5.09	7.03	7.01	7.11	6.92	7.10	CS(=O)(Cc1cc2nc(c1)Nc1cc(c(F)cn1)-c1ccc(F)cc1OCCCCN2)=NC(=O)OCc1ccccc1 (racemic) [Example 2, (rac)-Benzyl[{[16,20-difluoro-3,4,5,6-tetrahydro-2H,12H-11,7-(azeno)-13,17-(metheno)-1,6,12,14-benzoxatriazacyclononadecin-9-yl]methyl}(methyl)oxido-λ^6-sulfanylidene]carbamate]
		6.19						CS(=N)(=O)Cc1cc2nc(c1)Nc1cc(c(F)cn1)-c1ccc(F)cc1OCCCCN2 (racemic) [Example 3, (rac)-16,20-Difluoro-9-[(S-methylsulfonimidoyl)methyl]-3,4,5,6-tetrahydro-2H,12H-11,7-(azeno)-13,17-(metheno)-1,6,12,14-benzoxatriazacyclononadecine]
	6.02	5.08	6.08	6.12		6.08	5.97	C[S+]([O-])Cc1cc2nc(c1)OCCCCc1cc(F)ccc1-c1cc(ncc1F)N2 (racemic) [Example 5, (rac)-2,18-Difluoro-9-[(methylsulfinyl)methyl]-13,14,15,16-tetrahydro-6H-7,11-(azeno)-5,1-(metheno)-12,4,6-benzoxadiazacyclooctadecine]
	7.49	7.21	7.52	7.48	7.36	7.28	7.43	CC(C)(C)OC(=O)N=S(C)(=O)Cc1cc2nc(c1)Nc1cc(c(F)cn1)-c1ccc(F)cc1OCCCN2 (racemic) [Example 7, (rac)-tert-butyl[{[15,19-difluoro-2,3,4,5-tetrahydro-11H-10,6-(azeno)-16,12-(metheno)-1,5,11,13-benzoxatriazacyclooctadecin-8-yl]methyl}(methyl)oxido-λ^6-sulfanylidene]carbamate]
	8.48	7.54	8.25	8.12	7.96	8.30	7.41	CS(=N)(=O)Cc1cc2nc(c1)Nc1cc(c(F)cn1)-c1ccc(F)cc1OCCCN2 (racemic) [Example 8, (rac)-15,19-difluoro-8-[(S-methylsulfonimidoyl)methyl]-2,3,4,5-tetrahydro-11H-10,6-(azeno)-16,12-(metheno)-1,5,11,13-benzoxatriazacyclooctadecine]
	7.48	6.60	7.44	7.32	7.07	7.12	7.41	CC(C)(C)OC(=O)N=S(C)(=O)Cc1cc2nc(c1)Nc1cc(c(F)cn1)-c1ccc(F)cc1OCCCCCN2 (racemic) [Example 9, (rac)-tert-butyl[{[17,21-difluoro-2,3,4,5,6,7-hexahydro-13H-12,8-(azeno)-14,18-(metheno)-1,7,13,15-benzoxatriazacycloicosin-10-yl]methyl}(methyl)oxido-λ^6-sulfanylidene]carbamate]
	7.11	5.89	7.26	7.17		7.03	7.10	CC(C)(C)OC(=O)N=S(C)(=O)Cc1cc2cc(c1)OCCCNc1cc(F)ccc1-c1nc(ncc1F)N2 (racemic) [Example 13, (rac)-tert-butyl[{[15,19-difluoro-1,2,3,4-tetrahydro-16,12-(azeno)-6,10-(metheno)-5,1,11,13-benzoxatriazacyclooctadecin-8(11H)-yl]methyl}(methyl)oxido-λ^6-sulfanylidene]carbamate]
		7.03						CS(=N)(=O)Cc1cc2cc(c1)OCCCNc1cc(F)ccc1-c1nc(ncc1F)N2 (racemic) [Example 14, rac-15,19-difluoro-8-[(S-methylsulfonimidoyl)methyl]-1,2,3,4-tetrahydro-16,12-(azeno)-6,10-(metheno)-5,1,11,13-benzoxatriazacyclooctadecine]
		5.88						CN1CCCCOc2cc(F)ccc2-c2nc(ncc2F)Nc2cc(CS(C)(=N)=O)cc1c2 (racemic) [Example 23, (rac)-16,20-difluoro-6-methyl-9-[(S-methylsulfonimidoyl)methyl]-3,4,5,6-tetrahydro-2H,12H-13,17-(azeno)-11,7-(metheno)-1,6,12,14-benzoxatriazacyclononadecine]
		< 4.70						CC(C)(C)OC(=O)N=S(C)(=O)Cc1cc2cc(c1)Nc1ncc(F)c(n1)-c1ccc(F)cc1OCCCCN2 (racemic) [Example 24, (rac)-tert-butyl[{[16,20-difluoro-3,4,5,6-tetrahydro-2H,12H-13,17-(azeno)-11,7-(metheno)-1,6,12,14-benzoxatriazacyclononadecin-9-yl]methyl}(methyl)oxido-λ^6-sulfanylidene]carbamate]
	6.07		6.07	6.36	6.00	6.06	6.23	CSCc1cc2nc(c1F)N(C)CCCCOc1cc(F)ccc1-c1cc(ncc1F)N2 [Example 12, 8,16,20-trifluoro-6-methyl-9-[(methylsulfanyl)methyl]-3,4,5,6-tetrahydro-2H,12H-11,7-(azeno)-13,17-(metheno)-1,6,12,14-benzoxatriazacyclononadecine]
